# Results reported in US10561638B2, “Methods for treating dependence” (Biotie Therapies, Inc., priority 2007, dated 2020).
# “Also recorded” adds a separate entry of the source.
# Test system: tissue noradrenaline and dopamine content
# Assay: Tissue catecholamines in SHRs after three oral doses 12 h apart
# Format: in vivo, spontaneously hypertensive rats
# Conditions: for increase in DA/NE ratio / nepicastat compared with SKF-102698, catecholamine changes: 30 mg/kg; for maximal increase in DA/NE ratio: 100 mg/kg; for decrease in noradrenaline / increase in dopamine: 100 mg/kg po x3
# Experimental: Male SHRs (15-16 weeks old, Charles River, Wilmington, Mass., USA) were used in in vivo studies. On the day of the study, animals were weighed and randomly assigned to be dosed with either vehicle (control) or the appropriate dose of nepicastat (3, 10, 30 or 100 mg·kg^−1, po) or Compound B (30 mg·kg^−1, po) three consecutive times, twelve hours apart. At six hours after the third dose, the rats were anaesthetized with halothane, decapitated and tissues (cerebral cortex, mesenteric artery and left ventricle) were rapidly harvested, weighed, placed in iced perchloric acid (0.4 M), frozen in liquid nitrogen and stored at −70° C. until subsequent analysis. To quantify noradrenaline and dopamine concentrations, tissues were homogenized by brief sonication and centrifuged at 13,000 rpm for 30 minutes at 4° C. The supernatant, spiked with 3,4-dihydroxybenzylamine (internal standard), was assayed for noradrenaline and dopamine by HPLC using electrochemical detection.
# Nepicastat was used in in vivo biochemical studies to study the effects in spontaneously hypertensive rats (SHRs) and normal beagle dogs. On the day of the study, the animals were weighed and randomly assigned to receive either placebo (vehicle) or the appropriate dose of nepicastat. Each rat was dosed orally three times, 12 h apart, beginning in the morning. At 6 h after the third dose, the rats were anesthetized with halothane, decapitated, and the tissues (cerebral cortex, mesenteric artery and left ventricle) were rapidly harvested, weighed, placed in iced 0.4 M perchloric acid, frozen in liquid nitrogen and stored at −70° C. until analysis. Tissue NE and DA concentrations were assayed by HPLC using electrochemical detection. Male beagle dogs (10-16 kg, Marshall Farms USA Inc, North Rose, N.Y.) were used in the study. On the day of the study, dogs were randomly assigned to receive either placebo (empty capsule) or the appropriate dose of nepicastat. Each dog was dosed twice a day for 4.5 days. 6 h after the first dose on day 5, the dogs were euthanized with pentobarbital and the tissues (cerebral cortex. renal artery, left ventricle) harvested, weighed, placed in iced 0.4 M perchloric acid, frozen in liquid nitrogen and stored at −70° C. until analysis. Tissue NE and DA concentrations were assayed by HPLC using electrochemical detection.
# Fifteen to sixteen week old male spontaneously hypertensive rats (SHRs) (Charles River Labs) were allowed food and water ad libitum. Animals were weighed and randomly assigned to one of the following treatment groups: 1) distilled water vehicle (dH2O), or nepicastat at 3, 10, 30, and 100 mg/kg, 2) Compound B at 30 mg/kg in distilled water, or 3) PEG 400:dH2O vehicle or SKF-102698 at 30 mg/kg. Each rat was dosed orally (p.o., using a gavage needle) three times 12 hours apart, beginning in the morning. At six hours after the third dose rats were anesthetized with halothane, decapitated, and the cortex, mesenteric artery, and left ventricle were rapidly harvested, weighed, placed in iced 0.4 M perchioric acid, frozen in liquid nitrogen, and stored at −70° C. Tissue dopamine and norepinephrine concentrations were assayed by high performance liquid chromatography and electrochemical detection.
# Four series of statistical analyses were performed. The first series compared the rats treated with various doses of nepicastat, and Compound B at 30 mg/kg to the vehicle control animals. A nonparametric one-way analysis of variance (ANOVA) with factor Dose and blocking factor Day was performed for each tissue and strain separately. […] Pairwise analysis between treated and controls at each dose were carried out using Dunnett's test to control the experiment-wise error rate. The second statistical test compared SKF-102698 to the PEG-dH2O vehicle treated group using a nonparametric t-test. The third statistical test compared Compound B to nepicastat at doses of 30 mg/kg using a nonparametric t-test.
# [1] = cerebral cortex, 30 and 100 mg/kg
# [2] = left ventricle and mesenteric artery
# [3] = left ventricle, 3, 10, 30 and 100 mg/kg
smiles,measurement,setting,value
"Fc1cc(F)cc(Cn2cc[nH]c2=S)c1 [SKF-102698, reference compound]",increase in DA/NE ratio,cerebral cortex,2.7 fold
same,dopamine vs vehicle,"cerebral cortex, 30 mg/kg x3",significantly greater (p<0.01) than vehicle
same,dopamine/norepinephrine ratio vs vehicle,"cerebral cortex, 30 mg/kg x3",significantly (p<0.01) greater than vehicle
same,norepinephrine vs vehicle,"cerebral cortex, 30 mg/kg x3",significantly lower than vehicle
same,increase in DA/NE ratio,left ventricle,3.5 fold
same,dopamine vs vehicle,"left ventricle, 30 mg/kg x3",significantly greater (p<0.01) than vehicle
same,dopamine/norepinephrine ratio vs vehicle,"left ventricle, 30 mg/kg x3",significantly (p<0.05) greater than vehicle
same,norepinephrine vs vehicle,"left ventricle, 30 mg/kg x3",not different from vehicle
same,increase in DA/NE ratio,mesenteric artery,5.5 fold
same,dopamine vs vehicle,"mesenteric artery, 30 mg/kg x3",significantly greater than vehicle
same,dopamine/norepinephrine ratio vs vehicle,"mesenteric artery, 30 mg/kg x3",significantly greater than vehicle
same,norepinephrine vs vehicle,"mesenteric artery, 30 mg/kg x3",significantly lower than vehicle
"Cl.NCc1c[nH]c(=S)n1[C@H]1CCc2c(F)cc(F)cc2C1 [nepicastat, (S)-5-Aminomethyl-1-(5,7-difluoro-1,2,3,4-tetrahydronaphth-2-yl)-2,3-dihydro-2-thioxo-1H-imidazole hydrochloride]","nepicastat compared with the R-enantiomer (Compound B), catecholamine changes","30 mg/kg po x3, mesenteric artery and/or left ventricle, hydrochloride",significantly greater changes in catecholamine content; also recorded: significantly more potent then the R enantiomer; also recorded: significantly more effective (p<0.01) than Compound B
same,increase in DA/NE ratio,cerebral cortex,1.5 fold
same,"norepinephrine levels, nepicastat compared to Compound B","cerebral cortex, 30 mg/kg x3",significantly lower
same,"nepicastat compared with SKF-102698, catecholamine changes","cerebral cortex, hydrochloride",significantly less effects than SKF-102698; also recorded: greater for SKF-102698 than for nepicastat; also recorded: less effective in the cerebral cortex
same,maximal increase in DA/NE ratio,cerebral cortex,3.2 fold
same,decrease in noradrenaline,cerebral cortex,42%
same,increase in dopamine,cerebral cortex,86%
same,dopamine concentration vs vehicle,[1],significantly (p<0.05) greater
same,dopamine/norepinephrine ratio vs vehicle,[1],significantly (p<0.05) greater
same,norepinephrine concentration vs vehicle,[1],significantly (p<0.05) lower
same,dose for significant decrease in norepinephrine,[2],10 mg/kg
same,dose for significant increase in dopamine,[2],3.0 mg/kg
same,dose for significant increase in dopamine/norepinephrine ratio,[2],3.0 mg/kg
same,"nepicastat compared with SKF-102698, catecholamine changes","left ventricle and/or mesenteric artery, hydrochloride",significantly more potent than the DBH inhibitor SKF-102698; also recorded: greater for nepicastat than for SKF-102698; also recorded: more effective than SKF-102698
same,increase in DA/NE ratio,left ventricle,7.5 fold
same,maximal increase in DA/NE ratio,left ventricle,11 fold
same,decrease in noradrenaline,left ventricle,35%
same,increase in dopamine,left ventricle,800%
same,dopamine concentration vs vehicle,[3],significantly (p<0.05) greater than vehicle
same,dopamine/norepinephrine ratio vs vehicle,[3],significantly (p<0.05) greater than vehicle
same,norepinephrine concentration vs vehicle,"left ventricle, 10, 30 and 100 mg/kg",significantly (p<0.05) lower than vehicle
same,doses at which catecholamine changes attained significance (p<0.05),mesenteric artery and left ventricle,≥ 3 mg/kg
same,increase in DA/NE ratio,mesenteric artery,8.3 fold
same,maximal increase in DA/NE ratio,mesenteric artery,14 fold
same,decrease in noradrenaline,mesenteric artery,47%
same,increase in dopamine,mesenteric artery,820%
same,dopamine concentration vs vehicle,"mesenteric artery, 3, 10, 30 and 100 mg/kg",significantly (p<0.05) greater than vehicle
same,norepinephrine concentration vs vehicle,"mesenteric artery, 10, 30 and 100 mg/kg",not significantly less (p>0.05)
same,dopamine/norepinephrine ratio vs vehicle,"mesenteric artery, all doses",significantly (p<0.05) greater than vehicle
